Data reported in US10947252B2, “Inhibitors of KEAP1-Nrf2 protein-protein interaction” (Janssen Pharmaceutica NV, priority 2018, dated 2021).
pEC50, pKd: −log10 of the molar value.

Tests used:
[1] = target: Kelch domain of human KEAP1 (321-624 aa) (Homo sapiens (Human), UniProt Q14145); experiment: KEAP1 KELCH ThermoFluor binding assay; conditions: KEAP Kelch […], 1,8-ANS, pH 7.0, average of results obtained, read-out: Tf Kd;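 also: Ligand-induced melting temperature shift of E. coli-expressed KEAP1 Kelch protein, Kd estimated from concentration-response curves of ΔTm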
Chain of Kelch domain of human KEAP1 (321-624 aa) (Q14145 321-624): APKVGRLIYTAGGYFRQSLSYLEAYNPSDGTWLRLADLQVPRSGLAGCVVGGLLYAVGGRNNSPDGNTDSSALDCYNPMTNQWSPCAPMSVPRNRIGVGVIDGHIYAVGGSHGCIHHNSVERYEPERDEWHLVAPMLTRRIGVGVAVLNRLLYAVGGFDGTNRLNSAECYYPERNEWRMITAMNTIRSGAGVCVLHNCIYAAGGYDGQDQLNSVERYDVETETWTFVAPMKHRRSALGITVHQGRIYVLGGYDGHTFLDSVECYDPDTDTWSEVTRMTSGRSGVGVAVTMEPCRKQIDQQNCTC

[2] = system: Glo-Response ARE-luc2P HEK293 cell line; experiment: ARE luciferase reporter cell-based assay; conditions: Homo sapiens, HEK293, 24 h, average of results obtained;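 also: luciferase signal tracks Nrf2 activation of the ARE once compounds disrupt KEAP1-Nrf2 binding, read with One-Glo reagent, DMSO serving as low control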

Compound | pKd [1] | pEC50 [2]
Cc1cnc2c(c1)S(=O)(=O)N(Cc1cc([C@H](c3ccn4c(C(F)F)nnc4c3C)C(C)(C)C(=O)O)ccc1C)CC1(CCOCC1)O2 (single isomer, unassigned) [Example 577, (*R)-3-(3-(Difluoromethyl)-8-methyl-[1,2,4]triazolo[4,3-a]pyridin-7-yl)-2,2-dimethyl-3-(4-methyl-3-((8′-methyl-1′,1′-dioxido-2,3,5,6-tetrahydrospiro[pyran-4,4′-pyrido[2,3-b][1,4,5]oxathiazepin]-2′(3′H)-yl)methyl)phenyl)propanoic Acid] | 6.14 | 6.11
Cc1ccc([C@H](c2ccn3c(C(F)F)nnc3c2C)C(C)(C)C(=O)O)cc1CN1CC2(CCOCC2)Oc2nc(OCCN3CCOCC3)ccc2S1(=O)=O (single isomer, unassigned) [Example 580, (*R)-3-(3-(Difluoromethyl)-8-methyl-[1,2,4]triazolo[4,3-a]pyridin-7-yl)-2,2-dimethyl-3-(4-methyl-3-((7′-(2-morpholinoethoxy)-1′,1′-dioxido-2,3,5,6-tetrahydrospiro[pyran-4,4′-pyrido[2,3-b][1,4,5]oxathiazepin]-2′(3′H)-yl)methyl)phenyl)propanoic Acid] | 5.78 | 5.49
COc1ccc2c(n1)OC1(CCOCC1)CN(Cc1cc([C@H](c3ccn4c(C(F)F)nnc4c3C)C(C)(C)C(=O)O)ccc1C)S2(=O)=O (single isomer, unassigned) [Example 583, (*R)-3-(3-(Difluoromethyl)-8-methyl-[1,2,4]triazolo[4,3-a]pyridin-7-yl)-3-(3-((7′-methoxy-1′,1′-dioxido-2,3,5,6-tetrahydrospiro[pyran-4,4′-pyrido[2,3-b][1,4,5]oxathiazepin]-2′(3′H)-yl)methyl)-4-methylphenyl)-2,2-dimethylpropanoic Acid] | 5.79 | 6.12
Cc1cnc2c(c1)S(=O)(=O)N(Cc1cc([C@@H](c3ccn4c(C(F)(F)F)nnc4c3C)C(C)(C)C(=O)O)cnc1C)CC1(CCOCC1)O2 (single isomer, unassigned) [Example 586, (*R)-2,2-Dimethyl-3-(8-methyl-3-(trifluoromethyl)-[1,2,4]triazolo[4,3-a]pyridin-7-yl)-3-(6-methyl-5-((8′-methyl-1′,1′-dioxido-2,3,5,6-tetrahydrospiro[pyran-4,4′-pyrido[2,3-b][1,4,5]oxathiazepin]-2′(3′H)-yl)methyl)pyridin-3-yl)propanoic Acid] | 5.20 | < 4.70
Cc1cnc2c(c1)S(=O)(=O)N(Cc1cc([C@H](c3ccn4c(C(F)(F)F)nnc4c3C)C(C)(C)C(=O)O)ncc1C)CC1(CC1)O2 (single isomer, unassigned) [Example 589, (*R)-2,2-Dimethyl-3-(8-methyl-3-(trifluoromethyl)-[1,2,4]triazolo[4,3-a]pyridin-7-yl)-3-(5-methyl-4-((8′-methyl-1′,1′-dioxidospiro[cyclopropane-1,4′-pyrido[2,3-b][1,4,5]oxathiazepin]-2′(3′H)-yl)methyl)pyridin-2-yl)propanoic Acid] | 5.84 | 5.71
CCn1nnc2c(C)c([C@H](c3cc(CN4CC5(CC5)Oc5ncc(C)cc5S4(=O)=O)c(C)cn3)C(C)(C)C(=O)O)ccc21 (single isomer, unassigned) [Example 594, (*S)-3-(1-Ethyl-4-methyl-1H-benzo[d][1,2,3]triazol-5-yl)-2,2-dimethyl-3-(5-methyl-4-((8′-methyl-1′,1′-dioxidospiro[cyclopropane-1,4′-pyrido[2,3-b][1,4,5]oxathiazepin]-2′(3′H)-yl)methyl)pyridin-2-yl)propanoic Acid] | > 9.00 | 8.48
CCn1nnc2c(C)c([C@H](c3cc(CN4CC5(CNC5)Oc5ncc(C)cc5S4(=O)=O)c(C)cn3)C(C)(C)C(=O)O)ccc21 (single isomer, unassigned) [Example 595, (*S)-3-(1-Ethyl-4-methyl-1H-benzo[d][1,2,3]triazol-5-yl)-2,2-dimethyl-3-(5-methyl-4-((8′-methyl-1′,1′-dioxidospiro[azetidine-3,4′-pyrido[2,3-b][1,4,5]oxathiazepin]-2′(3′H)-yl)methyl)pyridin-2-yl)propanoic Acid] | 8.37 | 6.86
Cc1ccc([C@@H](c2ccn3c(C(F)(F)F)nnc3c2C)C(C)(C)C(=O)O)cc1CN1CC2(CC2)Oc2nc(OCCN3CC(F)C3)c(C)cc2S1(=O)=O (single isomer, unassigned) [Example 596, (*S)-3-(3-((7′-(2-(3-fluoroazetidin-1-yl)ethoxy)-8′-methyl-1′,1′-dioxidospiro[cyclopropane-1,4′-pyrido[2,3-b][1,4,5]oxathiazepin]-2′(3′H)-yl)methyl)-4-methylphenyl)-2,2-dimethyl-3-(8-methyl-3-(trifluoromethyl)-[1,2,4]triazolo[4,3-a]pyridine-7-yl)propanoic Acid] | > 9.00 | 8.51

The next lines start with results.

pKd [1] | Compound | pEC50 [2]
> 9.00 | Cc1ccc([C@@H](c2ccn3c(C(F)F)nnc3c2C)C(C)(C)C(=O)O)cc1CN1CC2(CCOCC2)Oc2nc(OCCN3CCOCC3)ccc2S1(=O)=O (single isomer, unassigned) [Example 579, (*S)-3-(3-(Difluoromethyl)-8-methyl-[1,2,4]triazolo[4,3-a]pyridin-7-yl)-2,2-dimethyl-3-(4-methyl-3-((7′-(2-morpholinoethoxy)-1′,1′-dioxido-2,3,5,6-tetrahydrospiro[pyran-4,4′-pyrido[2,3-b][1,4,5]oxathiazepin]-2′(3′H)-yl)methyl)phenyl)propanoic Acid] | 7.56
> 9.00 | COc1ccc2c(n1)OC1(CCOCC1)CN(Cc1cc([C@@H](c3ccn4c(C(F)F)nnc4c3C)C(C)(C)C(=O)O)ccc1C)S2(=O)=O (single isomer, unassigned) [Example 582, (*S)-3-(3-(Difluoromethyl)-8-methyl-[1,2,4]triazolo[4,3-a]pyridin-7-yl)-3-(3-((7′-methoxy-1′,1′-dioxido-2,3,5,6-tetrahydrospiro[pyran-4,4′-pyrido[2,3-b][1,4,5]oxathiazepin]-2′(3′H)-yl)methyl)-4-methylphenyl)-2,2-dimethylpropanoic Acid] | 8.84
> 9.00 | Cc1cnc2c(c1)S(=O)(=O)N(Cc1cc([C@H](c3ccn4c(C(F)(F)F)nnc4c3C)C(C)(C)C(=O)O)cnc1C)CC1(CCOCC1)O2 (single isomer, unassigned) [Example 585, (*S)-2,2-Dimethyl-3-(8-methyl-3-(trifluoromethyl)-[1,2,4]triazolo[4,3-a]pyridin-7-yl)-3-(6-methyl-5-((8′-methyl-1′,1′-dioxido-2,3,5,6-tetrahydrospiro[pyran-4,4′-pyrido[2,3-b][1,4,5]oxathiazepin]-2′(3′H)-yl)methyl)pyridin-3-yl)propanoic Acid] | 6.60
> 9.00 | Cc1cnc2c(c1)S(=O)(=O)N(Cc1cc([C@@H](c3ccn4c(C(F)(F)F)nnc4c3C)C(C)(C)C(=O)O)ncc1C)CC1(CC1)O2 (single isomer, unassigned) [Example 588, (*S)-2,2-Dimethyl-3-(8-methyl-3-(trifluoromethyl)-[1,2,4]triazolo[4,3-a]pyridin-7-yl)-3-(5-methyl-4-((8′-methyl-1′,1′-dioxidospiro[cyclopropane-1,4′-pyrido[2,3-b][1,4,5]oxathiazepin]-2′(3′H)-yl)methyl)pyridin-2-yl)propanoic Acid] | 8.12
> 9.00 | Cc1cnc([C@@H](c2ccn3c(C(F)(F)F)nnc3c2C)C(C)(C)C(=O)O)cc1CN1CC2(CC2)Oc2nc(OCCN3CCCC3)c(C)cc2S1(=O)=O (single isomer, unassigned) [Example 590, (*S)-2,2-Dimethyl-3-(8-methyl-3-(trifluoromethyl)-[1,2,4]triazolo[4,3-a]pyridin-7-yl)-3-(5-methyl-4-((8′-methyl-1′,1′-dioxido-7′-(2-(pyrrolidin-1-yl)ethoxy)spiro[cyclopropane-1,4′-pyrido[2,3-b][1,4,5]oxathiazepin]-2′(3′H)-yl)methyl)pyridin-2-yl)propanoic Acid] | 7.48
> 9.00 | Cc1cnc2c(c1)S(=O)(=O)N(Cc1cc([C@@H](c3ccn4c(C(F)(F)F)nnc4c3C)C(C)(C)C(=O)O)ncc1C)CC1(CCOCC1)O2 (single isomer, unassigned) [Example 591, (*S)-2,2-Dimethyl-3-(8-methyl-3-(trifluoromethyl)-[1,2,4]triazolo[4,3-a]pyridin-7-yl)-3-(5-methyl-4-((8′-methyl-1′,1′-dioxido-2,3,5,6-tetrahydrospiro[pyran-4,4′-pyrido[2,3-b][1,4,5]oxathiazepin]-2′(3′H)-yl)methyl)pyridin-2-yl)propanoic Acid] | 7.58
> 9.00 | Cc1cnc([C@@H](c2ccn3c(C(F)(F)F)nnc3c2C)C(C)(C)C(=O)O)cc1CN1CC2(CC2)Oc2nc(OCCN3CCCCC3)c(C)cc2S1(=O)=O (single isomer, unassigned) [Example 592, (*S)-2,2-Dimethyl-3-(8-methyl-3-(trifluoromethyl)-[1,2,4]triazolo[4,3-a]pyridin-7-yl)-3-(5-methyl-4-((8′-methyl-1′,1′-dioxido-7′-(2-(piperidin-1-yl)ethoxy)spiro[cyclopropane-1,4′-pyrido[2,3-b][1,4,5]oxathiazepin]-2′(3′H)-yl)methyl)pyridin-2-yl)propanoic Acid] | 7.75
> 9.00 | Cc1cnc([C@@H](c2ccn3c(C(F)(F)F)nnc3c2C)C(C)(C)C(=O)O)cc1CN1CC2(CCOCC2)Oc2nc(OCCN3CCCC3)c(C)cc2S1(=O)=O (single isomer, unassigned) [Example 593, (*S)-2,2-Dimethyl-3-(8-methyl-3-(trifluoromethyl)-[1,2,4]triazolo[4,3-a]pyridin-7-yl)-3-(5-methyl-4-((8′-methyl-1′,1′-dioxido-7′-(2-(pyrrolidin-1-yl)ethoxy)-2,3,5,6-tetrahydrospiro[pyran-4,4′-pyrido[2,3-b][1,4,5]oxathiazepin]-2′(3′H)-yl)methyl)pyridin-2-yl)propanoic Acid] | 7.05
